Values quoted from earlier work, collected in US11007171B2, “Treatment and prevention of joint disorders” (Summit Innovation Labs, LLC, priority 2017, dated 2021).
Each block holds one compound with its values, some of them ahead of it.

Tests used:
cartilage = settings: by inhibiting iNOS expression
[1] = system: Porphyromonas gingivalis, Prevotella gingivalis, and Actinobacillus actinomycetemcomitans; settings: periodontopathic microorganisms
[2] = system: high fat diet-induced obese mice; settings: compared with controls
[3] = compared with vitamin E
[4] = in vivo
[5] = system: rabbit articular chondrocytes; settings: rabbit articular chondrocytes in vitro
AP1 = system: AP1; set-up: key: ↓: Downregulate Inducers of arthritis
[6] = system: human bone marrow-derived mesenchymal stem cells (hBMSCs); settings: especially at a concentration of 5 μM
P38 MAPK = system: P38 MAPK; set-up: key: ↓: Downregulate Inducers of arthritis
NF-κB = system: NF-κB; set-up: key: ↓: Downregulate Inducers of arthritis
NMDAR = system: NMDAR; set-up: key: ↓: Downregulate Inducers of arthritis
[7] = system: experimental osteoarthritis; settings: intraarticular magnesium sulfate (MgSO4)
[8] = system: rats fed a high cholesterol diet
[9] = system: rheumatoid arthritis synovial fibroblast (RASF)
[10] = system: osteoarthritis chondrocytes
C57BL/6 mice = settings: local intra-articular injection
mice fed high fat diet = settings: oral
mTOR = mTOR (Homo sapiens, UniProt P42345); set-up: key: ↓: Downregulate Inducers of arthritis
Bax = system: Bax; set-up: key: ↓: Downregulate Inducers of arthritis
FGF = system: FGF; set-up: key: ↓: Downregulate Inducers of arthritis
[11] = system: OA cartilage of animal model and IL-1β treated human chondrocytes; settings: resveratrol injection
[12] = system: Human Articular Cartilage and Chondrosarcoma Cells
HIF-2α = system: HIF-2α; set-up: key: ↓: Downregulate Inducers of arthritis
[13] = system: acute antigen-induced arthritis model
[14] = system: pigs with the equivalent of human metabolic syndrome
male C57BL/6J mice = settings: 0.4% (w/w), 4-8 week-old male C57BL/6J mice
RA = settings: by suppressing IL-1β, TNF-α, NF-κB, COX2 and PGE2, MMPs, and arthritis index through induction of SIRT1
[15] = system: advanced glycation end products stimulated chondrocytes
[16] = system: 23 fungi strains including Candida species; settings: fairly low concentration
[17] = system: Collagen induced rheumatoid arthritis; settings: quercetin supplementation
[18] = doses of a few grams a day in either humans or animals
[19] = after 4 weeks, 500 mg/day
VEGF = system: VEGF; set-up: key: ↓: Downregulate Inducers of arthritis
[20] = system: Human Chondrocytes Treated with Hydrogen Peroxide or Growth-Related Oncogene a
Runx2 = system: Runx2; set-up: key: ↓: Downregulate Inducers of arthritis

Compound: Oc1cc(O)c2c(c1)O[C@H](c1ccc(O)c(O)c1)[C@@H](O)[C@@H]2c1c(O)cc(O)c2c1O[C@H](c1ccc(O)c(O)c1)[C@@H](O)C2 [procyanidin B3]
cartilage degradation and heterotopic ossification (cartilage): Pcy B3 prevents cartilage degradation and heterotopic ossification (bone formation in
OA progression (OA animal model): Pcy and components of Pcy (procyanidin B2 and B3) slowed OA progression,

Compound: C=CCc1ccc(O)c(-c2ccc(O)c(CC=C)c2)c1 [honokiol]
antimicrobial activity [1]: significant antimicrobial activity
cytotoxic effect on human gingival cells (human gingival cells): relatively low cytotoxic effect
glucose tolerance [2]: improved
plasma total cholesterol and glucose levels [2]: significantly reduced
antioxidant activity, potency relative to vitamin E [3]: 1000 times

Compound: C=CCc1ccc(O)c(-c2cc(CC=C)ccc2O)c1 [magnolol, 4-Allyl-2-(5-allyl-2-hydroxy-phenyl)phenol]
oral bioavailability [4]: 4-5%
fasting blood glucose and plasma insulin levels (type 2 diabetic rats): reduced
antimicrobial activity [1]: significant antimicrobial activity
cytotoxic effect on human gingival cells (human gingival cells): relatively low cytotoxic effect
glucose tolerance [2]: improved
plasma total cholesterol and glucose levels [2]: significantly reduced
antioxidant activity, potency relative to vitamin E [3]: 1000 times

Compound: epigallocatechin-3-gallate [EGCG]
IL-1β-induced IL-6 and IL-8 synthesis (RASF): Inhibited IL-1β-induced IL-6 and IL-8 synthesis in RASF via suppressing
chondrocyte proliferation, production of collagen type II and aggrecan [5]: Enhanced chondrocyte proliferation, production of collagen type II and aggrecan.
Downregulate AP1 (AP1): ↓
osteogenic effect on hBMSCs [6]: strong stimulatory effect
Downregulate P38 MAPK (P38 MAPK): ↓
Downregulate NF-κB (NF-κB): ↓
AGEs induced expression of TNF-α and MMP-13 (OA chondrocytes): Significantly decreased AGEs induced expression of TNF-α and MMP-13 in OA

Compound: Magnesium
Downregulate NMDAR (NMDAR): ↓
Downregulate NF-κB (NF-κB): ↓
cartilage degradation and chondrocyte apoptosis [7]: Reduced cartilage degradation and chondrocyte apoptosis deposition by blocking

Compound: COc1ccc([C@@H]2CC(=O)c3c(O)cc(O[C@@H]4O[C@H](CO[C@@H]5O[C@@H](C)[C@H](O)[C@@H](O)[C@H]5O)[C@@H](O)[C@H](O)[C@H]4O)cc3O2)cc1O [hesperidin, hesperitin-7-O-rutinoside]
inhibition of liver cholesterol biosynthesis [8]: 28.3%
inhibition of the esterification of hepatic cholesterol [8]: 23.7%

Downregulate mTOR (mTOR): ↓
Compound: Oc1ccc(/C=C/c2cc(O)cc(O)c2)cc1 [Resveratrol, 3,5,4′-trihydroxy-trans-stilbene]
apoptosis of rheumatoid arthritis synovial fibroblast (RASF) [9]: Resveratrol induced apoptosis of rheumatoid arthritis synovial fibroblast (RASF)
chondrocyte apoptosis [10]: Reduced chondrocyte apoptosis mediated by (a) an inhibition of proapoptotic protein
Downregulate AP1 (AP1): ↓
AC degradation (C57BL/6 mice): delayed
OA symptoms (C57BL/6 mice): reduced
matrix synthesis (C57BL/6 mice): increased
OA severity (mice fed high fat diet): Significantly reduced
chondrocyte apoptosis (mice fed high fat diet): inhibited
collagen type II expression (mice fed high fat diet): increased
type II collagen and proteoglycan degradation (mice fed high fat diet): prevented
Downregulate Bax (Bax): ↓
Downregulate FGF (FGF): ↓
expression of collagen type II [11]: maintained
expression of iNOS and MMP-13 [11]: reduced
FGF and IL-1β induced chondrocytes apoptosis, expression of cartilage degrading proteases (MMPs and aggrecanases) and decrease in proteoglycan biosynthesis [12]: Significantly reduced fibroblast growth factor (FGF) and IL-1β induced chondrocytes
Downregulate HIF-2α (HIF-2α): ↓
knee swelling, histological score of synovial tissue, proliferating cell nuclear antigen (anti-PCNA), and proteins expressed by circulating microphages (CD 68, CD3) [13]: Resveratrol significantly reduced knee swelling, histological score of synovial tissue,
body mass indices, serum cholesterol and C-reactive protein [14]: lowered
glucose tolerance and endothelial function [14]: improved
aerobic capacity (male C57BL/6J mice): significantly increased
RA development and progression (RA): Resveratrol inhibited RA development and progression by suppressing inflammation
Downregulate NF-κB (NF-κB): ↓
AGEs induced degradation of collagen type II [15]: production of NO and PGE2, prevented AGEs induced degradation of collagen type
AGEs induced expression and activity of MMP-13 [15]: II, and decreased AGEs induced expression and activity of MMP-13 by down

Compound: COc1cc(/C=C/C(=O)CC(=O)/C=C/c2ccc(O)c(OC)c2)ccc1O [Curcumin, (1E,6E)-1,7-Bis(4-hydroxy-3-methoxyphenyl)-1,6-heptadiene-3,5-dione]
IL-1β induced chondrocytes apoptosis (chondrocytes): Inhibited IL-1β induced chondrocytes apoptosis, by suppressing caspase-3
Downregulate P38 MAPK (P38 MAPK): ↓
Downregulate NF-κB (NF-κB): ↓
antifungal activity [16]: potent antifungal activity
adhesion of Candida species to human buccal epithelial cells (Candida species): inhibitory effect

Compound: O=c1c(O)c(-c2ccc(O)c(O)c2)oc2cc(O)cc(O)c12 [Quercetin, 3,5,7,3′,4′-pentahydroxyflavone]
expression of genes associated with mitochondrial biogenesis (PGC-1a and SIRT1), mitochondrial DNA content, and cytochrome-C concentration (mice; 7 days, 12.5 or 25 mg/kg b.w., muscle and brain, mice): increases
maximal endurance capacity (time to fatigue) and voluntary wheel-running activity (mice; treadmill running test, compared with placebo-treated mice): significantly increased
progression of RA (arthritis score and paw swelling), elastase activity, oxidative stress and NO expression [17]: Quercetin supplementation (a) reduced progression of RA as indicated by a reduction
NF-κB activity, IL-1β, CRP, monocyte chemotactic protein-1 (rat adjuvant arthritis): Quercetin supplementation significantly reduced NF-κB activity, IL-1β, CRP,
plasma antioxidant activity (rat adjuvant arthritis): monocyte chemotactic protein-1, and increased plasma antioxidant activity [Gardi C,
side effects [18]: no side effects
Downregulate NF-κB (NF-κB): ↓

Compound: glucosyl-hesperidin [G-Hesperidin]
triglyceride level [19]: marked decrease

Compound: (−)-epicatechin-(4β→8)-(−)-epicatechin [procyanidin B2]
OA progression (OA animal model): Pcy and components of Pcy (procyanidin B2 and B3) slowed OA progression,

Compound: OCCc1ccc(O)c(O)c1 [Hydroxytyrosol, 4-(2-Hydroxyethyl)-1,2-benzenediol]
Downregulate VEGF (VEGF): ↓
level of SIRT1 mRNA ([20]; in the presence of GROα): HT treatment significantly increased the level of SIRT1 mRNA in the presence of
chondrocytes apoptosis, DNA damage ([20]; pretreatment of chondrocytes, oxidative stress or GROα): Pretreatment of chondrocytes with HT (a) prevented chondrocytes apoptosis, DNA
Downregulate Runx2 (Runx2): ↓
